The structures appear in SMILES notation.

This test addresses T1, Human orexin receptor type 2 (Homo sapiens, UniProt O43614).
T1 sequence (O43614 1-444): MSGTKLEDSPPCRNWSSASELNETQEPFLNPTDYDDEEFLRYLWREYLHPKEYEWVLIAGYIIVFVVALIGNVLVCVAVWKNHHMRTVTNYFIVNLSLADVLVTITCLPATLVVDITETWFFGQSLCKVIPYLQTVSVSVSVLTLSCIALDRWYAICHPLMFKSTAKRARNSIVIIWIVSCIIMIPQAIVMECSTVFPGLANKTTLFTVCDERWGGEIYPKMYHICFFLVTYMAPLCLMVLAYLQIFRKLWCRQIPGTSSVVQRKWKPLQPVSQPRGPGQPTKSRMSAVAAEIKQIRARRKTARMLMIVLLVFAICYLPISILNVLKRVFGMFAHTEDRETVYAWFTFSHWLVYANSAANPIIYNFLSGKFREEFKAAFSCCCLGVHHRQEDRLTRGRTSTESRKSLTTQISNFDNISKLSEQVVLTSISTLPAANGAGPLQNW
Kind of test: Test Example 1: agonist activity for orexin receptor type 2 (aequorin luminescence, intracellular calcium mobilization). To be noted: compound 10 μm; CHO cells transiently expressing human orexin receptor type 2 and apoaequorin; relative percentage of luminescence for the luminescence (100%) of Orexin A (100 μM).
In the case of `Cc1cc(C2(C)CCN(C(=O)Nc3c(F)cccc3N3CCN(C(C)C)CC3)CC2)no1` [Example 85, N-{2-fluoro-6-[4-(propan-2-yl)piperazin-1-yl]phenyl}-4-methyl-4-(5-methyl-1,2-oxazol-3-yl)piperidine-1-carboxamide], the “Agonist Activity (%)” value was 145%. `CC(C)N1CCN(c2cccc(Cl)c2NC(=O)N2CCC(C)(c3noc(C4(C)CC4)n3)CC2)CC1` [Example 80, N-{2-chloro-6-[4-(propan-2-yl)piperazin-1-yl]phenyl}-4-methyl-4-[5-(1-methylcyclopropyl)-1,2,4-oxadiazol-3-yl]piperidine-1-carboxamide]: the “Agonist Activity (%)” value was 157%.

In the case of `Cc1ccc(C2(C)CCN(C(=O)Nc3c(Cl)cccc3N3CCN(C(C)C)CC3)CC2)cc1` [Example 77, N-{2-chloro-6-[4-(propan-2-yl)piperazin-1-yl]phenyl}-4-methyl-4-(4-methylphenyl)piperidine-1-carboxamide], the “Agonist Activity (%)” value is on record as 158%.

For `CC1(c2cc(C3CC3)on2)CCN(C(=O)Nc2c(F)cccc2-c2ccc(C(F)(F)F)nc2)CC1.Cl` [Example 71, 4-(5-cyclopropyl-1,2-oxazol-3-yl)-N-{2-fluoro-6-[6-(trifluoromethyl)pyridin-3-yl]phenyl}-4-mehylpiperidine-1-carboxamide hydrochloride], the “Agonist Activity (%)” value is 88%. With `CC(C)N1CCN(c2cccc(F)c2NC(=O)N2CCC(C)(C3CCCC3)CC2)CC1` [Example 91, 4-cyclopentyl-N-{2-fluoro-6-[4-(propan-2-yl)piperazin-1-yl]phenyl}-4-methylpiperidine-1-carboxamide], the “Agonist Activity (%)” value came to 195%. Take `CC(C)c1ccc(C2CCN(C(=O)Nc3c(F)cccc3N3CCN(C(C)C)CC3)CC2)cc1` [Example 40, N-{2-fluoro-6-[4-(propan-2-yl)piperazin-1-yl]phenyl}-4-[4-(propan-2-yl)phenyl]piperidine-1-carboxamide]: the “Agonist Activity (%)” value turned out to be 122%. For `Cc1ccc(C2CCN(C(=O)Nc3c(F)cccc3C3=CCN(C)C3)CC2)cc1` [Example 140, N-[2-fluoro-6-(1-methyl-2,5-dihydro-1H-pyrrol-3-yl)phenyl]-4-(4-methylphenyl)piperidine-1-carboxamide], the “Agonist Activity (%)” value was found to be 75%. The figure for `CC(C)N1CC=C(c2cccc(Cl)c2NC(=O)N2CCC(C)(c3cc(C4CC4)on3)CC2)CC1` [Example 144, N-{2-chloro-6-[1-(propan-2-yl)-1,2,3,6-tetrahydropyridin-4-yl]phenyl}-4-(5-cyclopropyl-1,2-oxazol-3-yl)-4-methylpiperidine-1-carboxamide] is 143%; for `CC(C)c1noc(C2(C)CCN(C(=O)Nc3ccccc3N3CCN(C(C)C)CC3)CC2)n1.Cl` [Example 163, 4-methyl-4-[3-(propan-2-yl)-1,2,4-oxadiazol-5-yl]-N-{2-[4-(propan-2-yl)piperazin-1-yl]phenyl}piperidine-1-carboxamide hydrochloride] it is 110%. As to `Cc1cnc(C2CCN(C(=O)Nc3c(Cl)cccc3N3CCN(C(C)C)CC3)CC2)nc1` [Example 98, N-{2-chloro-6-[4-(propan-2-yl)piperazin-1-yl]phenyl}-4-(5-methylpyrimidin-2-yl)piperidine-1-carboxamide], the “Agonist Activity (%)” value is given as 165%.

`CCOc1cccc(C2CCN(C(C)CC)CC2)c1NC(=O)N1CCC(c2ccc(C)cc2)CC1` (stereo not shown) [Example 128, N-{2-[1-(butan-2-yl)piperidin-4-yl]-6-ethoxyphenyl}-4-(4-methylphenyl)piperidine-1-carboxamide]: the “Agonist Activity (%)” value is reported as 136%. For the molecule `COc1cccc(N2CCN(C(C)C)CC2)c1NC(=O)N1CCC(c2ccc(OC(F)(F)F)cc2)CC1` [Example 16, N-{2-methoxy-6-[4-(propan-2-yl)piperazin-1-yl]phenyl}-4-[4-(trifluoromethoxy)phenyl]piperidine-1-carboxamide], the “Agonist Activity (%)” value is listed as 82%. Regarding `Cc1nc(C2(C)CCN(C(=O)Nc3c(F)cccc3N3CCN(C(C)C)CC3)CC2)no1` [Example 22, N-{2-fluoro-6-[4-(propan-2-yl)piperazin-1-yl]phenyl}-4-methyl-4-(5-methyl-1,2,4-oxadiazol-3-yl)piperidine-1-carboxamide], the “Agonist Activity (%)” value came out at 97%. For `Cc1ccc(C2CCN(C(=O)Nc3c(F)cccc3N3C4CCC3CN(C(C)C)C4)CC2)cc1` [Example 161, N-{2-Fluoro-6-[3-(propan-2-yl)-3,8-diazabicyclo[3.2.1]octan-8-yl]phenyl}-4-(4-methylphenyl)piperidine-1-carboxamide], the “Agonist Activity (%)” value is on record as 90%. With `CC(C)N1CCN(c2cccc(F)c2NC(=O)N2CCC(C)(c3noc(C4CC(F)(F)C4)n3)CC2)CC1` [Example 75, 4-[5-(3,3-difluorocyclobutyl)-1,2,4-oxadiazol-3-yl]-N-{2-fluoro-6-[4-(propan-2-yl)piperazin-1-yl]phenyl}-4-methylpiperidine-1-carboxamide], the “Agonist Activity (%)” value came out at 131%.

`CC(C)N1CCN(c2cccc(Cl)c2NC(=O)N2CCC(C)(c3noc(C4(F)CC4)n3)CC2)CC1` [Example 109, N-{2-chloro-6-[4-(propan-2-yl)piperazin-1-yl]phenyl}-4-[5-(1-fluorocyclopropyl)-1,2,4-oxadiazol-3-yl]-4-methylpiperidine-1-carboxamide]: the “Agonist Activity (%)” value was 161%. The figure for `CC(C)N1CCN(c2cccc(Cl)c2NC(=O)N2CCC(F)(c3noc(C4CC4)n3)CC2)CC1` [Example 94, N-{2-chloro-6-[4-(propan-2-yl)piperazin-1-yl]phenyl}-4-(5-cyclopropyl-1,2,4-oxadiazol-3-yl)-4-fluoropiperidine-1-carboxamide] is 179%. Regarding `Cc1noc(C2(F)CCN(C(=O)Nc3ccccc3N3CCN(C(C)C)CC3)CC2)n1` [Example 164, 4-fluoro-4-(3-methl-1,2,4-oxadiazol-5-yl)-N-{2-[4-(propan-2-yl)piperazin-1-yl]phenyl}piperidine-1-carboxamide], the “Agonist Activity (%)” value was 128%. The figure for `CC(C)N1CCC(c2cccc(Cl)c2NC(=O)N2CCC(C)(c3noc(C4CC4)n3)CC2)CC1` [Example 145, N-{2-chloro-6-[1-(propan-2-yl)piperidin-4-yl]phenyl}-4-(5-cyclopropyl-1,2,4-oxadiazol-3-yl)-4-methylpiperidine-1-carboxamide] is 148%. `CC(C)N1CCN(c2cccc(Cl)c2NC(=O)N2CCC(C)(c3noc(C4CCCC4)n3)CC2)CC1` [Example 74, N-{2-chloro-6-[4-(propan-2-yl)piperazin-1-yl]phenyl}-4-(5-cyclopentyl-1,2,4-oxadiazol-3-yl)-4-methylpiperidine-1-carboxamide]: the “Agonist Activity (%)” value is given as 145%. For `Cc1ccc(C2CCN(C(=O)Nc3c(Cl)cccc3C3=CCN(C(C)C)CC3)CC2)cc1` [Example 132, N-{2-chloro-6-[1-(propan-2-yl)-1,2,3,6-tetrahydropyridin-4-yl]phenyl}-4-(4-methylphenyl)piperidine-1-carboxamide], the “Agonist Activity (%)” value is reported as 171%. As for `Cc1ccc(C2CCN(C(=O)Nc3ccccc3C3CCN(C(C)C)CC3)CC2)cc1.Cl` [Example 31, 4-(4-methylphenyl)-N-{2-[1-(propan-2-yl)piperidin-4-yl]phenyl}piperidine-1-carboxamide hydrochloride], the “Agonist Activity (%)” value is 164%. For `CC(C)N1CCN(c2cccc(Cl)c2NC(=O)N2CCC(C)(c3nnc(C4CC4)s3)CC2)CC1` [Example 102, N-{2-chloro-6-[4-(propan-2-yl)piperazin-1-yl]phenyl}-4-(5-cyclopropyl-1,3,4-thiadiazol-2-yl)-4-methylpiperidine-1-carboxamide], the “Agonist Activity (%)” value turned out to be 160%. Regarding `Cc1ccc(C2CCN(C(=O)Nc3c(F)cccc3C3CCN(C(C)C(F)F)CC3)CC2)cc1` (stereo not shown) [Example 138, N-{2-[1-(1,1-difluoropropan-2-yl)piperidin-4-yl]-6-fluorophenyl}-4-(4-methylphenyl)piperidine-1-carboxamide], the “Agonist Activity (%)” value worked out at 44%. With `Cc1ccc(C2(C)CCN(C(=O)Nc3c(Cl)cccc3C3CCN(C(C)C)CC3)CC2)cc1` [Example 148, N-{2-chloro-6-[1-(propan-2-yl)piperidin-4-yl]phenyl}-4-methyl-4-(4-methylphenyl)piperidine-1-carboxamide], the “Agonist Activity (%)” value is reported as 176%. Turning to `CC(C)N1CCN(c2ccccc2NC(=O)N2CCC(c3ccccc3)CC2)CC1` [Example 7, 4-phenyl-N-{2-[4-(propan-2-yl)piperazin-1-yl]phenyl}piperidine-1-carboxamide], the “Agonist Activity (%)” value came to 154%. Next, `Cc1ccc(C2CCN(C(=O)Nc3c(F)cccc3OC3CCN(C(C)C)CC3)CC2)cc1` [Example 62, N-(2-fluoro-6-{[1-(propan-2-yl)piperidin-4-yl]oxy}phenyl)-4-(4-methylphenyl)piperidine-1-carboxamide]: 75%; `Cc1ccc(C2CCN(C(=O)Nc3c(F)cccc3N3CCN(C(C)C)CC3)CC2)nc1` [Example 46, N-{2-fluoro-6-[4-(propan-2-yl)piperazin-1-yl]phenyl}-4-(5-methylpyridin-2-yl)piperidine-1-carboxamide]: 49%.

Values taken from US20240308960A1 (Sumitomo Pharma Co., Ltd., priority 2021, published 2024).
